Assay results published in patent US20090252673A1, “Methods of Making and Using Rubidium-81-Containing Compositions” (priority 2006, published 2009).

System: occlusion/reperfusion rat heart model
Test: Ex vivo dual tracer autoradiography, Tl-201 and Rb-81 redistribution kinetics
Format: in vivo, rats
Conditions: 20 μm heart slices, phosphor-imager ROIs
Method: Three additional rats were simultaneously injected with 20 MBq Rb-81 and 2.7 MBq Tl-201. After the occlusion/injection/reperfusion procedure was completed (see FIG. 8), the animals were sacrificed at 0, 15 and 45 min after initiating the reperfusion.
After the hearts of the animals were removed and freshly frozen in liquid nitrogen, they were sliced into short axis 20 μm slices. Radioactivity in the tissues sections was determined by using a phosphor-imager. Rb-81 was measured over a period of 3 h directly after preparation of the slices, whereas the Tl-201 activity was determined after the Rb-81 activity was almost completed (Rb-81: t1/2=4.58 h versus a 4 day decay period).
Quantitative evaluations were carried out by comparison of the detected counts within regions-of-interest in both, normal tissue areas and occluded tissues areas. Comparisons are given in percent of normal heart tissue.

Structure (SMILES): [201Tl] [Tl-201, reference compound]
- activity in occluded areas, percent of the uptake in normal tissues (0 min p.i.): 5%
- activity in occluded areas, percent of the uptake in normal tissues (15 min p.i.): 28%
- activity in occluded areas, percent of the uptake in normal tissues (45 min p.i.): 58%
